# Source: patent US11052245B2, “Device and method for localized delivery and extraction of material” (Helsingin Yliopisto, priority 2015, dated 2021)
# Legend:
# [1] = Delivery of phosphotungstic acid into bovine articular cartilage by MHD, imaged with X-ray micro-tomography; assay type: in vitro ADME; conditions: PTA 1% in PBS; MHD for 40 s, graphite electrodes ø=6 mm, 3 mm gap, 400 mA; control immersed 40 s without MHD; XMT of 150 μm slices
# Source text: Control: bovine articular cartilage was immersed in 1% PTA (˜2.8 kDa) in phosphate buffered saline (PBS) for 40 s.
# Treatment: bovine articular cartilage was immersed in PTA 1% in PBS and exposed to MHD for 40 s. The MHD method applied graphite cylindrical electrodes (ø=6 mm), 3 mm electrode gap, and 400 mA.
# [2] = In-vitro delivery of methylene blue into human nails by MHD, photograph; assay type: in vitro ADME; conditions: MB 0.01% in PBS 1%, MHD for 10 minutes, graphite electrodes ø=6 mm, 3 mm gap, 400 mA, control immersed 10 minutes without MHD
# Method: Control: Fingernail was immersed in a solution of MB (0.01%) in PBS (1%) for 10 minutes.
# Treatment; Fingernail was immersed in the MB solution and exposed to MHD during 10 minutes. The MHD method applied graphite cylindrical electrodes (ø=6 mm), 3 mm electrode gap, and 400 mA.
# The darkest regions correspond to the largest concentration of MB.
SMILES,"Diffusion of PTA into cartilage, treated sample vs control [1]","Diffusion of MB into nail, treated sample vs control [2]"
"O=P(O)(O)O.[O]=[W](=[O])=[O].[O]=[W](=[O])=[O].[O]=[W](=[O])=[O].[O]=[W](=[O])=[O].[O]=[W](=[O])=[O].[O]=[W](=[O])=[O].[O]=[W](=[O])=[O].[O]=[W](=[O])=[O].[O]=[W](=[O])=[O].[O]=[W](=[O])=[O].[O]=[W](=[O])=[O].[O]=[W](=[O])=[O] [PTA, phosphotungstic acid]",enhanced diffusion of PTA as compared to the control,–
"CN(C)c1ccc2nc3ccc(=[N+](C)C)cc-3sc2c1 [MB, methylene blue]",–,stronger than in the control
